One assay deals with T1, JNK1α1 (Homo sapiens, UniProt P45983).
T1 construct: catalytic domain containing amino acids 1-364 and N-terminal hexahistidine tag; hexahistidine (His6) (N); made in house; host or cells: E. coli BL21 (DE3)
T1 sequence (P45983 1-364): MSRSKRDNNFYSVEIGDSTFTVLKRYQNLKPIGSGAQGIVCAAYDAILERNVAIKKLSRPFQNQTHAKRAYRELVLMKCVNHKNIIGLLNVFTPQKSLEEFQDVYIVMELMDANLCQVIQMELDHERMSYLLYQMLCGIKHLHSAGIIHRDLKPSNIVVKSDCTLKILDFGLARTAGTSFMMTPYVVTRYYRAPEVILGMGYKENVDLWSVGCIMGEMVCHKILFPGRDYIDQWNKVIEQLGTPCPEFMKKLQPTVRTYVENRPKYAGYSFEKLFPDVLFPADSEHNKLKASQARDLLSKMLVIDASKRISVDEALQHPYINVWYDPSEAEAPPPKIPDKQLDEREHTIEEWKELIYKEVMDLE
In words: Coupled spectrophotometric (PK/LDH) JNK1α1 assay: % inhibition and Ki determination. Type of assay: biochemical. To be noted: @1 uM; read-out: % Inhibition JNK-1. In short, it runs like this:
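Initial rates were taken from the absorbance decrease at 340 nm at 30° C. Ki was fitted with a tight-binding model over 11 concentrations (top 100 μM); single-point inhibition was tested at 1 or 10 μM.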
By inhibition is commonly meant the drop in the measured response relative to a control, in per cent. Regarding `CC(C)[C@@H](CO)NC(=O)c1ccc2cnc(NC3CCC3)nc2c1` [Example 424, 2-(cyclobutylamino)-N-[(1S)-1-(hydroxymethyl)-2-methylpropyl]quinazoline-7-carboxamide], the inhibition at 1 µM came to 22%.

Take `O[C@H]1CC[C@H](Nc2ncc3ccc(OC4CCN(c5cccnn5)CC4)cc3n2)CC1` [Example 293, trans-4-({7-[(1-pyridazin 3-ylpiperidin-4-yl)oxy]quinazolin-2-yl}amino)cyclohexanol]: the inhibition at 1 µM worked out at 52%. Take `CC(C)c1ncc(NC(=O)c2cccc3cnc(N[C@H]4CC[C@H](O)CC4)nc23)cn1` [Example 321, 2-[(trans-4-hydroxycyclohexyl)amino]-N-(2-isopropylpyrimidin-5-yl)quinazoline-8-carboxamide]: the inhibition at 1 µM was 39%. Same read-out and setting: to `Cc1nnc(NC(=O)c2cccc3cnc(N[C@H]4CC[C@H](O)CC4)nc23)o1` [Example 323, 2-[(trans-4-hydroxycyclohexyl)amino]-N-(5-methyl-1,3,4-oxadiazol-2-yl)quinazoline-8-carboxamide] belongs 42%; to `Cn1c(CCNC(=O)c2cccc3cnc(N[C@H]4CC[C@H](O)CC4)nc23)nc2cccnc21` [Example 520, 2-[(trans-4-hydroxycyclohexyl)amino]-N-[2-(3-methyl-3H-imidazo[4,5-b]pyridin-2-yl)ethyl]quinazoline-8-carboxamide], 10%.

The assay is the same for the next values; noted with them: @10 uM; read-out: % Inhibition JNK-1.
`Cc1cc(C)nc(CNC(=O)c2cccc3cnc(N[C@H]4CC[C@H](O)CC4)nc23)n1` [Example 512, N-[(4,6-dimethylpyrimidin-2-yl)methyl]-2-[(trans-4-hydroxycyclohexyl)amino]quinazoline-8-carboxamide]: the inhibition at 10 µM amounted to 31%. On the same count and under the same terms, as for `COc1ccc(F)c(CNc2cc3cc(-c4cn[nH]c4)ccc3cn2)c1` [Example 236, N-(2-fluoro-5-methoxybenzyl)-6-(1H-pyrazol-4-yl)isoquinolin-3-amine], the figure is 49%; as for `O=C(NCc1nnc(C2CC2)[nH]1)c1cccc2cnc(N[C@H]3CC[C@H](O)CC3)nc12` [Example 490, N-[(5-cyclopropyl-4H-1,2,4-triazol-3-yl)methyl]-2-[(trans-4-hydroxycyclohexyl)amino]quinazoline-8-carboxamide], 40%; as for `O=C(NCC1CN(C2CCC2)C(=O)CO1)c1cccc2cnc(N[C@H]3CC[C@H](O)CC3)nc12` (stereo partly drawn) [Example 526, N-[(4-cyclobutyl-5-oxomorpholin-2-yl)methyl]-2-[(trans-4-hydroxycyclohexyl)amino]quinazoline-8-carboxamide], 41%.

The same assay, now with this note: JNK-1.
What is called Ki is the dissociation constant of the complex between target and ligand, obtained from inhibition or displacement. Higher therefore signals a looser hold on the target. For the compound `O=C(NC1(c2ccncc2)CC1)c1cccc2cnc(N[C@H]3CC[C@H](O)CC3)nc12` [Example 455, 2-[(trans-4-hydroxycyclohexyl)amino]-N-(1-pyridin-4-ylcyclopropyl)quinazoline-8-carboxamide], the inhibition constant Ki was 235 nM.

Take `O=C(NC1CCS(=O)(=O)C1)c1ccc2cnc(N[C@H]3CC[C@H](O)CC3)nc2c1` (stereo partly drawn) [Example 79, N-(1,1-dioxidotetrahydro-3-thienyl)-2-[(trans-4-hydroxycyclohexyl)amino]quinazoline-7-carboxamide]: the inhibition constant (Ki) is 292 nM. This Ki and that of the compound before are within 1.5-fold of each other. On to `CC(C)(C)OC(=O)NC(CC(=O)Nc1cc2cc(-c3cn[nH]c3)ccc2cn1)c1c(F)cccc1F` (centres unmarked) [Example 31, tert-butyl (1-(2,6-difluorophenyl)-3-oxo-3-{[6-(1H-pyrazol-4-yl)isoquinolin-3-yl]amino}propyl)carbamate], for which the inhibitory constant (Ki) amounted to 3 nM. In the case of `O=C(NCCO)c1ccc2cnc(N[C@H]3CC[C@H](O)CC3)nc2c1` [Example 346, 2-[(trans-4-hydroxycyclohexyl)amino]-N-(2-hydroxyethyl)quinazoline-7-carboxamide], the Ki was 945 nM. Regarding `CCN[C@H]1CC[C@H](Nc2ncc3cccc(OC4CCOC4)c3n2)CC1` (stereo partly drawn) [Example 192, trans-N-ethyl-N′-[8-(tetrahydrofuran-3-yloxy)quinazolin-2-yl]cyclohexane-1,4-diamine], the affinity corresponds to a Ki of 1130 nM. This Ki and that of the compound before are within 1.5-fold of each other. `O[C@H]1CC[C@H](Nc2ncc3cccc(O[C@@H]4CCOC4)c3n2)CC1` [Example 167, trans-4-({8-[(3R)-tetrahydrofuran-3-yloxy]quinazolin-2-yl}amino)cyclohexanol] registered an inhibition constant Ki of 644 nM. This Ki is about 1.8-fold lower than that of the compound before.

In the case of `CC(=O)N[C@H]1CC[C@H](Nc2ncc3cccc(C(=O)NC(C)(C)CO)c3n2)CC1` [Example 134, 2-{[trans-4-(acetylamino)cyclohexyl]amino}-N-(2-hydroxy-1,1-dimethylethyl)quinazoline-8-carboxamide], affinity was put at a Ki of 127 nM. On the same count and under the same terms, to `CN([C@H]1CC[C@H](Nc2ncc3cccc(C(=O)N[C@@H]4COC[C@H]4O)c3n2)CC1)S(C)(=O)=O` (relative stereo) [Example 141, N-[(trans)-4-hydroxytetrahydrofuran-3-yl]-2-({trans-4-[methyl(methylsulfonyl)amino]cyclohexyl}amino)quinazoline-8-carboxamide] belongs 29 nM. In the case of `CN(C)c1ncccc1NC(=O)c1ccc2cnc(N[C@H]3CC[C@H](O)CC3)nc2c1` [Example 331, N-[2-(dimethylamino)pyridin-3-yl]-2-[(trans-4-hydroxycyclohexyl)amino]quinazoline-7-carboxamide], the Ki came to 410 nM. Regarding `CC(C)c1ccc(OCC(=O)Nc2cc3cc(-c4cn[nH]c4)ccc3cn2)cc1` [Example 50, 2-(4-isopropylphenoxy)-N-[6-(1H-pyrazol-4-yl)isoquinolin-3-yl]acetamide], the affinity corresponds to a Ki of 3 nM. Regarding `CC(C)[C@@H](CO)NC(=O)c1cccc2cnc(N[C@H]3CC[C@H](O)CC3)nc12` [Example 445, 2-[(trans-4-hydroxycyclohexyl)amino]-N-[(1S)-1-(hydroxymethyl)-2-methylpropyl]quinazoline-8-carboxamide], the Ki stood at 110 nM. `COc1cc2c(cc1CNc1cc3cc(-c4cn[nH]c4)ccc3cn1)N(C)C(=O)CC2` [Example 219, 6-methoxy-1-methyl-7-({[6-(1H-pyrazol-4-yl)isoquinolin-3-yl]amino}methyl)-3,4-dihydroquinolin-2(1H)-one] returned a Ki of 1160 nM. Consider `O=C(N[C@@H]1COC[C@H]1O)c1ccc2cnc(NC3CCCCC3)nc2c1` [Example 405, 2-(cyclohexylamino)-N-[(3R,4S)-4-hydroxytetrahydrofuran-3-yl]quinazoline-7-carboxamide], for which the Ki was 722 nM. Same read-out and setting: as for `O=C(Nc1cc2cc(-c3cn[nH]c3)ccc2cn1)[C@H]1C[C@@H]1c1ccccc1` [Example 54, (1S,2S)-2-phenyl-N-[6-(1H-pyrazol-4-yl)isoquinolin-3-yl]cyclopropanecarboxamide], the figure is 8 nM; as for `O[C@H]1CC[C@H](Nc2ncc3cccc(OC4CCC4)c3n2)CC1` [Example 242, trans-4-{[8-(cyclobutyloxy)quinazolin-2-yl]amino}cyclohexanol], 112 nM. On the same count and under the same terms, to `O=C(NCC(O)c1ccc(F)c(F)c1)c1cccc2cnc(N[C@H]3CC[C@H](O)CC3)nc12` (stereo partly drawn) [Example 456, N-[2-(3,4-difluorophenyl)-2-hydroxyethyl]-2-[(trans-4-hydroxycyclohexyl)amino]quinazoline-8-carboxamide] belongs 254 nM; to `O=C(NC[C@H]1C[C@@H]1CO)c1ccc2cnc(N[C@H]3CC[C@H](O)CC3)nc2c1` [Example 350, 2-[(trans-4-hydroxycyclohexyl)amino]-N-{[(1S,2S)-2-(hydroxymethyl)cyclopropyl]methyl} quinazoline-7-carboxamide], 1040 nM. `O=C(N[C@H](CO)c1ccccc1)c1ccc2cnc(N[C@H]3CC[C@H](O)CC3)nc2c1` [Example 95, 2-[(trans-4-hydroxycyclohexyl)amino]-N-[(1S)-2-hydroxy-1-phenylethyl]quinazoline-7-carboxamide] returned an inhibition constant Ki of 74 nM.

Compound `O=C(Cc1c(F)cccc1C(F)(F)F)Nc1cc2cc(-c3cn[nH]c3)ccc2cn1` [Example 33, N-[6-(1H-pyrazol-4-yl)isoquinolin-3-yl]-2-[2-(trifluoromethyl-6-fluoro)phenyl]acetamide] returned a Ki of 7 nM. Turning to `CC1(CNC(=O)c2ccc3cnc(N[C@H]4CC[C@H](O)CC4)nc3c2)COC1` [Example 335, 2-[(trans-4-hydroxycyclohexyl)amino]-N-[(3-methyloxetan-3-yl)methyl]quinazoline-7-carboxamide], the inhibition constant Ki stood at 483 nM.

As for `O=C(NC1CCS(=O)(=O)C1)c1ccc2cnc(N[C@H]3CC[C@H](O)CC3)nc2c1` (stereo partly drawn) [Example 344, N-(1,1-dioxidotetrahydro-3-thienyl)-2-[(trans-4-hydroxycyclohexyl)amino]quinazoline-7-7-carboxamide], the affinity corresponds to a Ki of 869 nM.

In the case of `CCC[C@@H](CO)NC(=O)c1ccc2cnc(N[C@H]3CC[C@H](O)CC3)nc2c1` [Example 377, 2-[(trans-4-hydroxycyclohexyl)amino]-N-[(1S)-1-(hydroxymethyl)butyl]quinazoline-7-carboxamide], the Ki stood at 147 nM. Compound `O=C(NCCN1CCOCC1)c1cccc2cnc(N[C@H]3CC[C@H](O)CC3)nc12` [Example 116, 2-[(trans-4-hydroxycyclohexyl)amino]-N-(2-morpholin-4-ylethyl)quinazoline-8-carboxamide] registered a Ki of 2450 nM. `O=C(NC1CCOC1)c1ccc2cnc(N[C@H]3CC[C@H](O)CC3)nc2c1` (stereo partly drawn) [Example 347, 2-[(trans-4-hydroxycyclohexyl)amino]-N-(tetrahydrofuran-3-yl)quinazoline-7-carboxamide] displayed a Ki of 963 nM. The compound `N#Cc1cc(CNc2cc3cc(-c4cn[nH]c4)ccc3cn2)ccc1F` [Example 226, 2-fiuoro-5-({[6-(1H-pyrazol-4-yl)isoquinolin-3-yl]amino}methyl)benzonitrile] displayed a Ki of 5270 nM. Still for that read-out and setting: as for `O=C(NC1CCCOC1)c1ccc2cnc(N[C@H]3CC[C@H](O)CC3)nc2c1` (stereo partly drawn) [Example 353, 2-[(trans-4-hydroxycyclohexyl)amino]-N-(tetrahydro-2H-pyran-3-yl)quinazoline-7-carboxamide], the figure is 1170 nM.

The values are drawn from patent publication US7998978B2 (Pfizer Inc., priority 2006, dated 2011).
